Test results: US12616689B2, “Regimens of tafenoquine for prevention of malaria in malaria-naive subjects” (60 Degrees Pharmaceuticals, Inc., priority 2014, dated 2026)

Legend:
[1] = in vivo; cited from earlier work
[2] = tested on: chloroquine sensitive and resistant P. vivax; settings: Aotus monkeys; cited from earlier work
[3] = tested on: malaria; settings: cited from earlier work
[4] = cited from earlier work
[5] = tested on: P. berghei; settings: cited from earlier work
[6] = tested on: Plasmodium falciparum malaria; settings: regimens of 50, 100, 200 and 400 mg; cited from earlier work
[7] = Population PK analysis (NONMEM one-compartment model) of plasma tafenoquine concentrations pooled from ten Phase I/II/III clinical studies, with bootstrap evaluation; assay type: in vivo, human; design: key to ωCL^2, variance of inter-individual random effect on CL, final NONMEM estimate / ωV^2, variance of inter-individual random effect on V, final NONMEM estimate / ωKa^2, variance of inter-individual random effect on Ka, final NONMEM estimate / ωCL^2, Bootstrap Estimate / ωV^2, Bootstrap Estimate / ωKa^2, Bootstrap Estimate: variance of ηi, where Pi = P·exp(ηi)
Experimental: Pharmacokinetic (PK) data from several studies (Phase I/II/III) was modeled to establish a consolidated model of tafenoquine and to determine relevant covariates. More specifically, analysis was performed using data obtained from ten Phase I/II/III clinical studies of tafenoquine (U.S. Army Study Numbers: 1, 2, 3, 4, 5, 14, 15, 33, 44 and 58). Table 2 summarizes the key features of each of the studies included in the pooled dataset such as the study type and design, dose and dosing regimen, population, and sample collection schemes. A total of 866 subjects were included in the population analysis. Ninety-three percent of the subjects were male.
The tafenoquine concentrations of plasma samples across the ten studies were analyzed using a validated high-performance liquid chromatography-mass spectrometry method (HPLC-MS) or HPLC with fluorescence detection as previously described (see, Kocisko D A, Walsh D S, Eamsila C, Edstein M D. Measurement of tafenoquine (WR 238605) in human plasma, and venous and capillary blood by high-pressure liquid chromatography. Ther Drug Monit. 2000; 22:184-189; Charles B G, Miller A K, Nasveld P E, Reid M G, Harris I E, Edstein M D. Population pharmacokinetics of tafenoquine during malaria prophylaxis in healthy subjects. Antimicrob Agents Chemother. 2007; 51:2709-2715.
Population PK analyses were carried out using NONMEM version 7.1.2, PDx-Pop version 4.2 (Icon Development Solutions, Hanover, MD) and Intel Visual Fortran Compiler version 12 on a Microsoft Windows XP platform. Plasma tafenoquine concentrations, demographic information and clinical laboratory results from ten studies were used to build a pooled NONMEM input data file for the current population PK analysis. The data were prepared for analysis using SAS software version 9.1.3 (SAS Institute Inc., Cary, NC). Actual dosing and actual blood sampling times, when available, were used for the analysis. Plasma tafenoquine concentrations that were below or equal to the limit of quantification were excluded from the analysis.
Based on the PK profile of tafenoquine from previous modeling efforts (Shanks G D, Oloo A J, Aleman G M, et al. A new primaquine analogue, tafenoquine (WR 238605), for prophylaxis against Plasmodium falciparum malaria. Clin Infect Dis. 2001; 33:1968-1974; Obaldia N 3rd, Rossan R N, Cooper R D, et al. WR 238605, chloroquine, and their combinations as blood schizonticides against a chloroquine-resistant strain of Plasmodium vivax in Aotus monkeys. Am J Trop Med Hyg. 1997; 56:508-10), a one-compartment PK model with first-order absorption and elimination processes was selected to describe best the pharmacokinetics of tafenoquine. As part of the modeling process, a two-compartment PK model with first-order absorption and elimination process was also explored and discarded. The one-compartment PK model was specified in the NONMEM control file and was parameterized in terms of apparent clearance (CL/F), apparent volume of distribution (V/F) and absorption rate constant (Ka) using the PREDPP ADVAN2 with TRANS2 subroutine in NONMEM. First-order conditional estimation (FOCE) with interaction between variance of inter-individual variability and the variance of residual error was used as the estimation method. Inter-individual variability was best described by an exponential error model, as shown below: Pi=Pexp(ηi) • where: • Pi is the estimated parameter for the i^th individual. • P is the population value for the parameter. • ηi are inter-individual random effects for the i^th individual for parameter P and were assumed to be independent and symmetrically distributed with a zero mean and a variance ω^2.
Different structural models (additive, proportional, exponential and combined additive and proportional) were investigated for residual unexplained variability (RUV). RUV was best described by a proportional error model, as shown below: […]

[8] = tested on: blood stages of P. falciparum; settings: cited from earlier work
[9] = final PK model, coefficient of variation

COc1cc(NC(C)CCCN)c2ncccc2c1 (stereo not drawn) [primaquine]
Half-life [1]: hours

COc1cc(C)c2c(Oc3cccc(C(F)(F)F)c3)c(OC)cc(NC(C)CCCN)c2n1 (stereo not drawn) [tafenoquine, -[2,6-Dimethoxy-4-methyl-5-[3-(trifluoromethyl)phenoxy]quinolin-8-yl]pentane-1,4-diamine]
Cure of chloroquine sensitive and resistant P. vivax infections [2]: cured | Protective efficacy ([3]; 200 mg daily for three days, then 200 mg weekly, 95% CI 93%-100%): 100% | Malaria breakthroughs ([3]; reference regimen, non-immune, primarily Caucasian Australian soldiers): no malaria breakthroughs were observed | Incidence of gastrointestinal adverse events relative to 400 mg once daily or BID for three days (total dose 1200 mg) ([4]; 200 mg once daily for three days (total dose 600 mg)): approximately half | Threshold dose considered safe in G6PD-deficient individuals ([4]; G6PD-deficient individuals): 300 mg | Safety and tolerability of a loading dose of 400 mg once daily for three days ([4]; G6PD-normal individuals): safe in G6PD-normal individuals in several clinical studies but exhibits gastrointestinal intolerability | Tolerability of a 400 mg dose ([4]; human, in vivo): less well tolerated | Half-life [1]: weeks | Activity against P. berghei in mice in vivo [5]: active | Reduction in microscopically confirmed parasitemia [6]: statistically significant reductions | COVCL,V, Bootstrap Estimate ([7]; 1000 bootstrap samples): 0.0250 | θCL, Bootstrap Estimate ([7]; 1000 bootstrap samples): 4.15 | θCL-AGE, Bootstrap Estimate ([7]; 1000 bootstrap samples): −0.200 | θCL-WT, Bootstrap Estimate ([7]; 1000 bootstrap samples): 0.554 | θKA, Bootstrap Estimate ([7]; 1000 bootstrap samples): 0.351 | θV, Bootstrap Estimate ([7]; 1000 bootstrap samples): 2482 | θV-FOOD, Bootstrap Estimate ([7]; 1000 bootstrap samples): 0.810 | θV-WT, Bootstrap Estimate ([7]; 1000 bootstrap samples): 0.774 | σ^2, Bootstrap Estimate ([7]; 1000 bootstrap samples): 0.0486 | ωCL^2, Bootstrap Estimate ([7]; 1000 bootstrap samples): 0.0536 | ωKa^2, Bootstrap Estimate ([7]; 1000 bootstrap samples): 0.283 | ωV^2, Bootstrap Estimate ([7]; 1000 bootstrap samples): 0.0521 | Inter-individual variability associated with CL/F before inclusion of covariates WT and age ([7]; base model, without covariates): 26.5% | Inter-individual variability of V/F before inclusion of covariates WT and meal condition ([7]; base model, without covariates): 29.6% | Vd/F ([7]; both sexes, human, plasma, oral, final PK model, WT 75 kg, fasted, read-out: θV, population apparent volume of distribution (V/F), final NONMEM estimate): 2470 L | COVCL,V, covariance, final NONMEM estimate ([7]; final PK model): 0.0289 | θV-WT, exponent of weight effect on V/F, final NONMEM estimate ([7]; final PK model): 0.781 | σ^2, variance of the proportional residual random effect, final NONMEM estimate ([7]; final PK model): 0.0488 | ωCL^2, variance of inter-individual random effect on CL, final NONMEM estimate ([7]; final PK model): 0.0555 | ωKa^2, variance of inter-individual random effect on Ka, final NONMEM estimate ([7]; final PK model): 0.293 | ωV^2, variance of inter-individual random effect on V, final NONMEM estimate ([7]; final PK model): 0.0583 | θV-FOOD, food effect on V/F, final NONMEM estimate ([7]; final PK model, FOOD = 0 fasted, 1 fed): 0.822 | Inter-individual variability of CL/F [7, 9]: 23.6% | Inter-individual variability of Ka [7, 9]: 54.1% | Inter-individual variability of V/F [7, 9]: 24.1% | Ka, first-order absorption rate constant, final NONMEM estimate ([7]; oral, final PK model): 0.359 h⁻¹ | θCL, population apparent clearance (CL/F), final NONMEM estimate ([7]; oral, final PK model, WT 75 kg, age 25 y): 4.17 L/h | Activity against blood stages of P. falciparum in vitro [8]: active
